The values that follow come from PMC6014988, “Precision therapeutic targeting of human cancer cell motility” (Nature Communications, 2018).

The data set in a line: Single intravenous dose organ function study. The data set is classed as in vivo. As to conditions: CD1 mice, single iv 15, 75 or 125 mg/kg, day 8 and 14. From the text: Supplementary Figure 7. KBU2046 treatment is not associated with systemic off-target effects. For histologic examination of tissue, cohorts of N=5 male 6-8 week old Balb/c athymic […]
KBU2046 as described in manuscript Figure 2a. After 35 days of treatment, the following organs were harvested at necropsy, and stained with H&E (alternative staining methods as indicated): heart, lungs, esophagus, stomach, colon, small intestine, liver (Trichrome staining), kidneys (Trichrome staining), adrenals, bladder, prostate, spleen, pancreas, brain, testes, and bone marrow and peripheral blood (Giemsa staining). Organs were examined for damage using a semi-quantitative histological scoring system, as described 4. […]
except in the livers of both control and treatment mice. Changes in the liver observed in control mice were not increased by KBU2046 treatment. […]
gm/mouse, this translated to 5-7 week old females and 4.5-5.5 week old males. […] On day 8 and 14, all critical organs were weighed, and the following parameters measured in blood: cholesterol, triglycerides, alanine aminotransferase (ALT), aspartate aminotransferase (AST), total bilirubin, glucose, phosphorus, total protein, calcium, blood urea nitrogen (BUN), creatinine, albumin, Na, K, Cl, white blood cells (with differential), red blood cells, hemoglobin, […]

Turning to `O=C1c2ccccc2OCC1c1ccc(F)cc1` (racemic) [KBU2046, (±)-3(4-fluorophenyl)chroman-4-one], the “organ weights, clinical chemistry and blood parameters” value was “No abnormal alterations”.
